In one test the target is T1, Human αvβ3 (Homo sapiens, UniProt P05106+P06756).
T1 construct: purchased Chemicon International Inc., Temecula, Calif
Put plainly: In vitro solid phase purified αvβ3 binding assay (vitronectin/αvβ3). Particulars: vitronectin binding to immobilized αvβ3; read-out: αvβ3 IC50. The procedure:
In Vitro Solid Phase Purified αvβ3 Binding Assay
The vitronectin/αvβ3 binding assay methods were derived from Mehta et al. (Biochem J. 1998, 330, 861). Human αvβ3 (Chemicon International Inc., Temecula, Calif.), at a concentration of 1 μg/ml dissolved in Tris buffer (20 mM Tris, 1 mM CaCl2, […], 10 μM MnCl2, 150 mM NaCl), was immobilized on Immulon 96 well plates (Dynex Technologies, Chantilly, Va.) overnight at 4° C. Plates were washed and treated with blocking buffer (3% BSA in Tris buffer) for 2 h at 37° C. Plates were then rinsed 2 times with Tris buffer containing 0.3% BSA and 0.2% Tween20 (polyoxyethylenesorbitan monolaurate). Five minutes prior to the addition of 5 nM vitronectin (Sigma, St. Louis, Mo.), synthesized compounds were added to wells in duplicate. Each plate included c-RGDfV as an internal control. Following a 3 hour incubation at 37° C., plates were washed 5 times in assay buffer. An anti-human vitronectin IgG rabbit polyclonal antibody (Calbiochem, San Diego, Calif.) was added (1:2000) and plates were incubated for 1 hour at room temperature. VectaStain ABC peroxidase kit reagents (Vector Laboratories, Burlingame, Calif.) employing a biotin labeled anti-rabbit IgG, were utilized for detection of bound antibody. Plates were read at 490 nm on a Molecular Devices (Sunnyvale, Calif.) microplate reader.

The target of test [1] is RGD-affinity purified GPIIb/IIIa (Homo sapiens, UniProt P05106+P08514). Put plainly: In vitro solid phase purified GPIIb/IIIa binding assay (biotinylated fibrinogen). Particulars: fibrinogen binding to immobilized GPIIb/IIIa; read-out: IIb/IIIa IC50. The method, then:
In Vitro Solid Phase Purified GP IIB/IIIA Binding Assay
The plate was covered and incubated overnight at 4° C. The GPIIb/IIIa solution was discarded and 150 μl of 5% BSA was added and incubated at RT for 1-3 h. The plate was washed extensively with modified Tyrodes buffer. Biotinylated fibrinogen (25 μl/well) at 2× final concentration was added to the wells that contain the test compounds (25 μl/well). The plate was covered and incubated at RT for 2-4 h. Twenty minutes prior to incubation completion, one drop of Reagent A (VectaStain ABC Horse Radish Peroxidase kit, Vector Laboratories, Inc.) and one drop Reagent B were added with mixing to 5 mL modified Tyrodes buffer mix and let stand. The ligand solution was discarded and the plate washed (5×200 μl/well) with modified Tyrodes buffer. Vecta Stain HRP-Biotin-Avidin reagent (50 μl/well, as prepared above) was added and incubated at RT for 15 min. The Vecta Stain solution was discarded and the wells washed (5×200 μl/well) with modified Tyrodes buffer. Developing buffer (10 mL of 50 mM citrate/phosphate buffer @ pH 5.3, 6 mg o-phenylenediamine, 6 μl 30% H2O2; 50 μl/well) was added and incubated at RT for 3-5 min, and then 2 NH2SO4 (50 μl/well) was added. The absorbance was read at 490 nm.

RGD-affinity purified GPIIb/IIIa, sequence (P08514 32-887 limits assumed): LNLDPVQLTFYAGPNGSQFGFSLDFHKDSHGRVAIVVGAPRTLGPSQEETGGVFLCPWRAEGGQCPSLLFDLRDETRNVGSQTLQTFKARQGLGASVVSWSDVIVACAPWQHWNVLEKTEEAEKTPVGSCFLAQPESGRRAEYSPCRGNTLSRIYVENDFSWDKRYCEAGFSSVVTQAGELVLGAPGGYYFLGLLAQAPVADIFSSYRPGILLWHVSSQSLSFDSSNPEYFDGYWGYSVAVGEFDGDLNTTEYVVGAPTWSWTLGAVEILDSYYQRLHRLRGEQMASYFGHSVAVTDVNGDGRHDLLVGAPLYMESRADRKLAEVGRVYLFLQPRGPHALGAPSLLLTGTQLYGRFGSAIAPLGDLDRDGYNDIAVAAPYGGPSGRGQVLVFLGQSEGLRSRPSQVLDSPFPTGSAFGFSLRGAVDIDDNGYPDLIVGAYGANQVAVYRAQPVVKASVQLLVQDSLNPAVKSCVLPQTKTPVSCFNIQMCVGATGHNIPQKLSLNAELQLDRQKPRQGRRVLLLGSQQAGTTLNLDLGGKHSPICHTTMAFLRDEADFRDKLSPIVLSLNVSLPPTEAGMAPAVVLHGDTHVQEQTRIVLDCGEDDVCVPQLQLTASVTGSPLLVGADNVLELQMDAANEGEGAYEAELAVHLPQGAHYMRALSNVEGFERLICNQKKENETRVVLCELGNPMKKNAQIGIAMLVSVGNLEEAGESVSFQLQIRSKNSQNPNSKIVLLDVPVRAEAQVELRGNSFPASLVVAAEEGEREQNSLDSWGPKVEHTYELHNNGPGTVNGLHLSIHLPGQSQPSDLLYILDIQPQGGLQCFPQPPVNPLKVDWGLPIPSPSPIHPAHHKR
RGD-affinity purified GPIIb/IIIa, sequence (P08514 891-1039 partner limits assumed): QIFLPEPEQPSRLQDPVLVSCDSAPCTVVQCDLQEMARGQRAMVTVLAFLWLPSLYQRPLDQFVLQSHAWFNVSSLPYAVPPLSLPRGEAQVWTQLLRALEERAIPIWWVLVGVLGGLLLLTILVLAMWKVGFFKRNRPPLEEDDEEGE
RGD-affinity purified GPIIb/IIIa, sequence (P05106 27-788): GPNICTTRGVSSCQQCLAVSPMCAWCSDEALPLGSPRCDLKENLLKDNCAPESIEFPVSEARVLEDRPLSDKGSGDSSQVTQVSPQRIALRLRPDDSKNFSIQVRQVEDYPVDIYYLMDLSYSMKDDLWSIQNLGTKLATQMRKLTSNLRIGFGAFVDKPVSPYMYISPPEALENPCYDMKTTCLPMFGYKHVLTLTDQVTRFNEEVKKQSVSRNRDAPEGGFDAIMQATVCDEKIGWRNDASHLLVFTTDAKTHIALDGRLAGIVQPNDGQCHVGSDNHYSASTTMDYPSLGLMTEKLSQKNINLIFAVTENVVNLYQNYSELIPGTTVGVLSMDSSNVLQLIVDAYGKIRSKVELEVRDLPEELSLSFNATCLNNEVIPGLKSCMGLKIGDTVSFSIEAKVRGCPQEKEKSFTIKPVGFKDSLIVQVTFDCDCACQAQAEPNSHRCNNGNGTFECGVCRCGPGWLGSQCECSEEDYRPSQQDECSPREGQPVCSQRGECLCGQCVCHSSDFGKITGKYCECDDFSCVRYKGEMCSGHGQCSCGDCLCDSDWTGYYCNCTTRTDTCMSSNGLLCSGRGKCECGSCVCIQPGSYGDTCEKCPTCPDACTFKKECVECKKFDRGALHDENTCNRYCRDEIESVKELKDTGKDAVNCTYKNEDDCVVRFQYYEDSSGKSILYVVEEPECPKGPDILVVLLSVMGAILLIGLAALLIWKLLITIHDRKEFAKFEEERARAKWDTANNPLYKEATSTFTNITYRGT
T1 sequence (P06756 31-889 limits assumed): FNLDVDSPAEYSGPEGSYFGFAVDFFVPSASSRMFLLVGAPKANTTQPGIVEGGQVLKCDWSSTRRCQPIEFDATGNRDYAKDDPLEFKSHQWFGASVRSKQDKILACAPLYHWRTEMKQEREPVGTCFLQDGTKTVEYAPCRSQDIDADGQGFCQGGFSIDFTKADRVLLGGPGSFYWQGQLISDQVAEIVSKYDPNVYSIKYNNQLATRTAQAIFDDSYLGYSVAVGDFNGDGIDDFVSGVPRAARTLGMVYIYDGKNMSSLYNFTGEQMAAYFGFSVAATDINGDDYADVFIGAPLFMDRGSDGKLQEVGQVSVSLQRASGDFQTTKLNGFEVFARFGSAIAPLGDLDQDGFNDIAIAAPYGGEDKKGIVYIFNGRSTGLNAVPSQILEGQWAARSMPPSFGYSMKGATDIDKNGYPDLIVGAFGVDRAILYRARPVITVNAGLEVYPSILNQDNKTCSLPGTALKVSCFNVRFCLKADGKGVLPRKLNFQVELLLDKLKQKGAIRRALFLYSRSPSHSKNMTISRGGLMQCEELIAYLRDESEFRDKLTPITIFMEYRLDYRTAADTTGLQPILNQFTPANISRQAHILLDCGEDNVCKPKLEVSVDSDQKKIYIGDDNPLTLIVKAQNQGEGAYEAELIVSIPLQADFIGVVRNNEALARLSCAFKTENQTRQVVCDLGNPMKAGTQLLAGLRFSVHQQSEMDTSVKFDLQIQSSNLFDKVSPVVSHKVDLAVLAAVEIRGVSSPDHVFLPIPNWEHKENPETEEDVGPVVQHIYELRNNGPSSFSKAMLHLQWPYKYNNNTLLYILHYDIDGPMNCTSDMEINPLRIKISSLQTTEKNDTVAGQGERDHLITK
T1 sequence (P06756 891-1048 partner limits assumed): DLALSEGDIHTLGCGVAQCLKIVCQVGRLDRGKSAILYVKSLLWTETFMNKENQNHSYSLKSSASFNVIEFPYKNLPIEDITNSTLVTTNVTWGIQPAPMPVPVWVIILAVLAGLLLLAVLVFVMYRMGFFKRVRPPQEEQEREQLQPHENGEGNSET
T1 sequence (P05106 27-788): as the sequence (P05106 27-788) above

For `O=C(O)C[C@H](NC(=O)C1CCN(C(=O)OCCNC2=NCCN2)CC1)c1cnc2ccccc2c1` [Compound 39, β-[[[1-[[2-[(4,5-dihydro-1H-imidazol-2-yl)amino]ethoxy]carbonyl]-4-piperidinyl]carbonyl]amino]-, (β^3S)-3-quinolinepropanoic acid], the IC50 stood at 2.3 nM on Human αvβ3 and 36 nM in test [1].
For `O=C(O)CC(NC(=O)C1CCN(C(=O)CCCNC2=NCCN2)CC1)c1cc(F)cc(F)c1` (centres unmarked) [Compound 38], in that order: above 300 nM and 3300 nM.
For `Cc1cccnc1NCCCC(=O)N1CCC(C(=O)NC[C@H](NC(=O)OCc2ccccc2)C(=O)O)CC1` [Compound 41], in that order: above 300 nM and 110 nM.
For `Cc1cccc(C(CC(=O)O)NC(=O)C2CCN(C(=O)CCCNC3=NCCN3)CC2)c1` (centres unmarked) [Compound 22], in that order: above 500 nM and 38000 nM.
Regarding `O=C(O)C[C@H](NC(=O)C1CCN(C(=O)CCCNC2=NCCN2)CC1)c1ccc(Cl)nc1` [Compound 3, 6-chloro-β-[[[1-[4-[(4,5-dihydro-1H-imidazol-2-yl)amino]-1-oxobutyl]-4-piperidinyl]carbonyl]amino]-, (β^3S)-3-pyridinepropanoic acid], the IC50 at Human αvβ3 was 28 nM; in test [1], 130 nM.
For `O=C(O)CC(NC(=O)C1CCN(C(=O)CCc2nc3ccccc3[nH]2)CC1)c1ccc2c(c1)OCCO2` (centres unmarked) [Compound 13], in that order: 10000 nM and 29000 nM.
Take `O=C(O)CC(NC(=O)C1CCN(C(=O)CCCNC2=NCCN2)CC1)c1ccc2ccccc2c1` (centres unmarked) [Compound 37]: the results for the IC50 (on Human αvβ3; in test [1]) were 290 nM and 1700 nM, respectively.
For `O=C(O)CC(NC(=O)C1CCN(C(=O)CCCNC2=NCCN2)CC1)c1ccc2c(c1)OCO2` (centres unmarked) [Compound 21], in that order: 23 nM and 410 nM.
For `O=C(N[C@@H](CNC(=O)C1CCN(C(=O)[C@H]2C=C[C@@H](NC3=NCCN3)C2)CC1)C(=O)O)OCc1ccccc1` [Compound 17, 3-[[[1-[[(1R,4S)-4-[(4,5-dihydro-1H-imidazol-2-yl)amino]-2-cyclopenten-1-yl]carbonyl]-4-piperidinyl]carbonyl]amino]-N-[(phenylmethoxy)carbonyl]-L-alanine], in that order: 380 nM and 5.4 nM.
The matching figures for `O=C(N[C@@H](CNC(=O)C1CCN(C(=O)NCCCn2ccnc2)CC1)C(=O)O)OCc1ccccc1` [Compound 10]: above 50000 nM and 950 nM.
As for `CC(CCNC1=NCCN1)C(=O)N1CCC(C(=O)N[C@@H](CC(=O)O)Cc2ccccc2)CC1` (some centres unmarked) [Compound 48], the IC50 at Human αvβ3 came out at 510 nM; in test [1] it was 1100 nM.
In the case of `O=C(O)CC(NC(=O)C1CCN(C(=O)CCCNC2=NCCN2)CC1)c1cccc(F)c1` (centres unmarked) [Compound 32], the IC50 at Human αvβ3 was determined as 120 nM; in test [1], 3600 nM.
For `O=C(O)CC(NC(=O)C1CCN(C(=O)CCc2nc3ccccc3[nH]2)CC1)c1cnc2ccccc2c1` (centres unmarked) [Compound 7], in that order: 490 nM and 7900 nM.
For `O=C(O)CC(NC(=O)C1CCN(C(=O)CCCNc2ccccn2)CC1)c1ccc2c(c1)OCO2` (stereo not drawn) [Compound 62, β-[[[1-[1-oxo-4-(2-pyridinylamino)butyl]-4-piperidinyl]carbonyl]amino]-1,3-benzodioxole-5-propanoic acid], in that order: above 500 nM and 380 nM.
For `O=C(N[C@@H](CNC(=O)C1CCN(C(=O)c2ccc(CNC3=NCCN3)cc2)CC1)C(=O)O)OCc1ccccc1` [Compound 53, 3-[[[1-[4-[[(4,5-dihydro-1H-imidazol-2-yl)amino]methyl]benzoyl]-4-piperidinyl]carbonyl]amino]-N-[(phenylmethoxy)carbonyl]-L-alanine], the IC50 at Human αvβ3 was 570 nM; in test [1] it was 1.5 nM.
The matching figures for `O=C(N[C@H](CNC(=O)C1CCN(C(=O)CCCNC2=NCCS2)CC1)C(=O)O)OCc1ccccc1` [Compound 57]: 350 nM and 130 nM.
The matching figures for `O=C(O)CC(NC(=O)C1CCN(C(=O)OCCNC2=NCCN2)CC1)c1cc(F)cc(F)c1` (centres unmarked) [Compound 35]: 140 nM and 1600 nM.
The matching figures for `O=C(NCCCC(=O)N1CCC(C(=O)NC[C@H](NC(=O)OCc2ccccc2)C(=O)O)CC1)NCc1ccccc1` [Compound 59]: 160 nM and 510 nM.
`O=C(O)C[C@H](NC(=O)C1CCN(C(=O)CCCNc2ccccn2)CC1)c1cccnc1` [Compound 30]: the IC50 was found to be 140 nM at Human αvβ3 and 56000 nM in test [1].
The matching figures for `CC(CCNC1=NCCN1)C(=O)N1CCC(C(=O)NC[C@H](NC(=O)OCc2ccccc2)C(=O)O)CC1` (stereo partly drawn) [Compound 47, 3-[[[1-[4-[(4,5-dihydro-1H-imidazol-2-yl)amino]-2-methyl-1-oxobutyl]-4-piperidinyl]carbonyl]amino]-N-[(phenylmethoxy)carbonyl]-L-alanine]: 4 nM and 28 nM.
As to `O=C(O)CC(NC(=O)C1CCN(C(=O)CCCNC2=NCCN2)CC1)c1ccc(F)c(F)c1` (centres unmarked) [Compound 43], the IC50 on Human αvβ3 was found to be 230 nM; in test [1] it was 1300 nM.
On to `O=C(O)CC(NC(=O)C1CCN(C(=O)CCCNC2=NCCN2)CC1)c1cccnc1` (centres unmarked) [Compound 25], for which the IC50 on Human αvβ3 is 32 nM; in test [1], 2900 nM.
The matching figures for `COC(=O)[C@H](CNC(=O)C1CCN(C(=O)CCCNC2=NCCN2)CC1)NC(=O)OCc1ccccc1` [Compound 42]: 170 nM and 140 nM.
The matching figures for `O=C(O)C[C@H](NC(=O)C1CCN(C(=O)OCCNC2=NCCN2)CC1)c1cccnc1` [Compound 40]: 12 nM and 1100 nM.
The matching figures for `O=C(N[C@@H](CNC(=O)C1CCN(C(=O)OCCNC2=NCCN2)CC1)C(=O)O)OCc1ccccc1` [Compound 28, 4-[[[(2S)-2-carboxy-2-[[(phenylmethoxy)carbonyl]amino]ethyl]amino]carbonyl]-, 2-[(4,5-dihydro-1H-imidazol-2-yl)amino]ethyl ester 1-piperidinecarboxylic acid]: 8.2 nM and 1500 nM.
As for `C[C@H](CC(=O)O)NC(=O)C1CCN(C(=O)CCCNC2=NCCN2)CC1` [Compound 4, 3-[[[1-[4-[(4,5-dihydro-1H-imidazol-2-yl)amino]-1-oxobutyl]-4-piperidinyl]carbonyl]amino]-, (3R)-butanoic acid], the IC50 was determined as 150 nM on Human αvβ3 and 1700 nM in test [1].
The matching figures for `COc1cc(OC)cc(C(CC(=O)O)NC(=O)C2CCN(C(=O)CCCNC3=NCCN3)CC2)c1` (centres unmarked) [Compound 24]: 64 nM and 2200 nM.
For `O=C(N[C@@H](CNC(=O)C1CCN(C(=O)CCNC2=NCCN2)CC1)C(=O)O)OCc1ccccc1` [Compound 12], in that order: 20 nM and 14 nM.
Consider `CC(CNC1=NCCN1)C(=O)N1CCC(C(=O)N[C@@H](CC(=O)O)c2cnc3ccccc3c2)CC1` (stereo partly drawn) [Compound 5, β-[[[1-[3-[(4,5-dihydro-1H-imidazol-2-yl)amino]-2-methyl-1-oxopropyl]-4-piperidinyl]carbonyl]amino]-, (β^3S)-3-quinolinepropanoic acid], for which the IC50 on Human αvβ3 was 15 nM; in test [1], 23 nM.
For `CC(CNC1=NCCN1)CC(=O)N1CCC(C(=O)NC[C@H](NC(=O)OCc2ccccc2)C(=O)O)CC1` (some centres unmarked) [Compound 54], in that order: 72 nM and 13 nM.
On to `O=C(O)CC(NC(=O)C1CCN(C(=O)CCCNC2=NCCN2)CC1)c1cccc2ccccc12` (centres unmarked) [Compound 36], for which the IC50 at Human αvβ3 was above 300 nM; in test [1], 12000 nM.
The matching figures for `O=C(O)CC(NC(=O)C1CCN(C(=O)OCCNC2=NCCN2)CC1)c1cccnc1` (centres unmarked) [Compound 31]: 29 nM and 4200 nM.
The matching figures for `O=C(O)CC(NC(=O)C1CCN(C(=O)CCCNC2=NCCN2)CC1)c1ccsc1` (centres unmarked) [Compound 20]: 530 nM and 4900 nM.
The matching figures for `O=C(N[C@@H](CNC(=O)C1CCN(C(=O)/C=C/CNC2=NCCN2)CC1)C(=O)O)OCc1ccccc1` [Compound 55]: 12 nM and 26 nM.

The values are drawn from US7718673B2, “Isonipecotamides for the treatment of integrin-mediated disorders” (Ortho-McNeil Pharmaceutical, Inc., priority 1999, dated 2010).
